Laboratory results published in ChEMBL document CHEMBL4425166, “Discovery of Pyridinyl Acetamide Derivatives as Potent, Selective, and Orally Bioavailable Porcupine Inhibitors” (ACS Med Chem Lett, 2016).
≈ marks a conversion by molar mass, not a printed value. Calls of active or inactive are those of the source. The calls are words filed in the database; no cut-off is given here.

Assays:
[1] = Aqueous solubility of compound in buffer of pH 6.8 after 24 hrs by UV-based high throughput assay; assay type: physicochemical
[2] = molecular target: T1, Protein-serine O-palmitoleoyltransferase porcupine (Mus musculus, UniProt Q9JJJ7); experiment: Inhibition of PORCN in […] overexpressing Wnt3A co-cultured with TM3 cells transfected with Wnt-luciferase gene after 24 hrs by luminescence assay; assay type: cell-based
T1 sequence (Q9JJJ7 whole entry): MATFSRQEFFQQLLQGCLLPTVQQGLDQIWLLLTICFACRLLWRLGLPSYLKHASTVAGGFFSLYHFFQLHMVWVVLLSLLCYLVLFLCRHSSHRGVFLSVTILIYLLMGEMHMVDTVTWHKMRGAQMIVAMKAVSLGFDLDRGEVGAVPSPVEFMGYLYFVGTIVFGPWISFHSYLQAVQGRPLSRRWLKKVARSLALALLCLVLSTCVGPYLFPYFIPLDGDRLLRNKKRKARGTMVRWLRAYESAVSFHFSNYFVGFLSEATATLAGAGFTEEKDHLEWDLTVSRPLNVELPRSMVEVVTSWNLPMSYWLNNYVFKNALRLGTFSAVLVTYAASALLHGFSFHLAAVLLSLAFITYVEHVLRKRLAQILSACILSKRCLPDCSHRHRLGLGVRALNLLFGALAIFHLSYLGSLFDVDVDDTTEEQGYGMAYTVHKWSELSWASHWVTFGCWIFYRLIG

[3] = Clearance in Balb/c mouse at 2 mg/kg, iv after 24 hrs by LC/MS/MS analysis; assay type: ADME, organism-based; settings: in vivo
[4] = Clearance in rat by LC/MS/MS analysis; assay type: ADME; settings: in vivo
[5] = Clearance in dog by LC/MS/MS analysis; assay type: ADME, Canis lupus familiaris; settings: in vivo
[6] = Volume of distribution at steady state in Balb/c mouse at 2 mg/kg, iv after 24 hrs by LC/MS/MS analysis; assay type: ADME, organism-based; settings: in vivo, read-out: Vdss
[7] = Volume of distribution at steady state in rat by LC/MS/MS analysis; assay type: ADME; settings: in vivo, read-out: Vdss
[8] = Volume of distribution at steady state in dog by LC/MS/MS analysis; assay type: ADME, Canis lupus familiaris; settings: in vivo, read-out: Vdss
[9] = Terminal half life in Balb/c mouse at 2 mg/kg, iv or 5 mg/kg via oral gavage by LC/MS/MS analysis; assay type: ADME, organism-based; settings: in vivo, read-out: beta t1/2 (converted)
[10] = Terminal half life in rat by LC/MS/MS analysis; assay type: ADME; settings: in vivo, read-out: beta t1/2 (converted)
[11] = Terminal half life in dog by LC/MS/MS analysis; assay type: ADME, Canis lupus familiaris; settings: in vivo, read-out: beta t1/2 (converted)
[12] = Oral bioavailability in Balb/c mouse at 5 mg/kg via gavage by LC/MS/MS analysis; assay type: ADME, organism-based; settings: in vivo
[13] = Oral bioavailability in rat by LC/MS/MS analysis; assay type: ADME, organism-based; settings: in vivo
[14] = Oral bioavailability in dog by LC/MS/MS analysis; assay type: ADME, organism-based, Canis lupus familiaris; settings: in vivo
[15] = molecular target: Cytochrome P450 2C9 (Homo sapiens, UniProt P11712); experiment: Inhibition of CYP2C9 (unknown origin); assay type: ADME
Chain of Cytochrome P450 2C9 (P11712 whole entry): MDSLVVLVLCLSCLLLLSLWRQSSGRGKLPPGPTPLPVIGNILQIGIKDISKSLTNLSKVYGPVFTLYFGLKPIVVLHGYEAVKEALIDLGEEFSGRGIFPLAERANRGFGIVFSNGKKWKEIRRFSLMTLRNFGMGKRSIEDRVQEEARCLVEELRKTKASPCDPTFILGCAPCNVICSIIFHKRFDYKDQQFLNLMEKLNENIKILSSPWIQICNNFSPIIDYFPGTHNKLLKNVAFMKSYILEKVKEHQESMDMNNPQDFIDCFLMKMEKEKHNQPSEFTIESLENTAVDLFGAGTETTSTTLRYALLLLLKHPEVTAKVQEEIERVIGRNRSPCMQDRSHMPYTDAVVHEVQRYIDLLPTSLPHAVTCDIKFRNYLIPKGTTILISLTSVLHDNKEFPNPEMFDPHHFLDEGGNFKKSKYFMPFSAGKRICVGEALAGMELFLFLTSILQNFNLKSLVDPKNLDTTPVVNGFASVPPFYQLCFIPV

[16] = molecular target: Cytochrome P450 2D6 (Homo sapiens, UniProt P10635); experiment: Inhibition of CYP2D6 (unknown origin); assay type: ADME
Chain of Cytochrome P450 2D6 (P10635 whole entry): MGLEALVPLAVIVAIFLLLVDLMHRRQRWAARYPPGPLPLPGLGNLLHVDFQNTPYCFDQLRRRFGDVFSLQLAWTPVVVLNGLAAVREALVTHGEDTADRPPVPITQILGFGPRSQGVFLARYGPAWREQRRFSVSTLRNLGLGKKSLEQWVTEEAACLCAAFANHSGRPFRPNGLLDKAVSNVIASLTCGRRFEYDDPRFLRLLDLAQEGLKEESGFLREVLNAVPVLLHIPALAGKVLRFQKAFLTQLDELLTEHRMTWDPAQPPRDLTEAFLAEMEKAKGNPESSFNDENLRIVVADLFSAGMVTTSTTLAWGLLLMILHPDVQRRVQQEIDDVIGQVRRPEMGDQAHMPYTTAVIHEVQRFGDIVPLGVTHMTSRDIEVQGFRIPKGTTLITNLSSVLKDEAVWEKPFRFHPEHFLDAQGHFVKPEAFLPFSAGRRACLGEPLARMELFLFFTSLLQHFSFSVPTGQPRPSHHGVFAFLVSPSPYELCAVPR

[17] = molecular target: Cytochrome P450 3A4 (Homo sapiens, UniProt P08684); experiment: Inhibition of CYP3A4 (unknown origin); assay type: ADME
Chain of Cytochrome P450 3A4 (P08684 whole entry): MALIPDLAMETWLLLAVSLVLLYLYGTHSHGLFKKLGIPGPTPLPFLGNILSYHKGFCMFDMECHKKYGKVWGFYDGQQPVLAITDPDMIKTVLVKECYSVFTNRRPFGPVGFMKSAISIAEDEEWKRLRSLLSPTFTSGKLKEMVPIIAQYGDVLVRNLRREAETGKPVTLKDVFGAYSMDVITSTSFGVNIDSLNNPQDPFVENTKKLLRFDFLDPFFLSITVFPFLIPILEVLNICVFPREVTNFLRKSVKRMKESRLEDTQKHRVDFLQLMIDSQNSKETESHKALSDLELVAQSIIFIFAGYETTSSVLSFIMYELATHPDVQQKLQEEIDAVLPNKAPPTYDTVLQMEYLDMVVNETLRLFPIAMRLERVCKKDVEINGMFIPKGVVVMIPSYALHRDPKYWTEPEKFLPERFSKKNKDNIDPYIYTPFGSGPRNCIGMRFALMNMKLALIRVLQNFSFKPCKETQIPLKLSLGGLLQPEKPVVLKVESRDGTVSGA

[18] = Protein binding in mouse plasma by rapid equilibrium dialysis; assay type: ADME, cell-free; settings: read-out: PPB (converted)
[19] = Protein binding in rat plasma by rapid equilibrium dialysis; assay type: ADME, cell-free; settings: read-out: PPB (converted)
[20] = Protein binding in dog plasma by rapid equilibrium dialysis; assay type: ADME, cell-free, Canis lupus familiaris; settings: read-out: PPB
[21] = Protein binding in monkey plasma by rapid equilibrium dialysis; assay type: ADME, cell-free, Macaca mulatta; settings: rhesus monkey, read-out: PPB (converted)
[22] = Protein binding in human plasma by rapid equilibrium dialysis; assay type: ADME, cell-free; settings: read-out: PPB (converted)
[23] = Apparent permeability across apical to basolateral side of human Caco2 cells; assay type: ADME, cell-based; settings: Caco-2
[24] = Efflux ratio of permeability in human Caco2 cells; assay type: ADME, cell-based; settings: Caco-2
[25] = test system: Mus musculus; experiment: Inhibition of Axin2 mRNA level in nude mouse MMTV-Wnt1 model at 3 mg/kg administered as oral gavage measured at 5 hrs by RT-PCR analysis; assay type: functional
[26] = test system: Mus musculus; experiment: Inhibition of Axin2 mRNA level in nude mouse MMTV-Wnt1 model at 3 mg/kg administered as oral gavage measured after 24 hrs by RT-PCR analysis; assay type: functional, organism-based
[27] = test system: Mus musculus; experiment: Antitumor activity in nude mouse MMTV-Wnt1 model assessed as tumor growth inhibition at 0.3 mg/kg, po qd administered for 2 weeks relative to control; assay type: functional
[28] = test system: Mus musculus; experiment: Antitumor activity in nude mouse MMTV-Wnt1 model assessed as tumor growth inhibition at 1 mg/kg, po qd administered for 2 weeks relative to control; assay type: functional
[29] = test system: Mus musculus; experiment: Antitumor activity in nude mouse MMTV-Wnt1 model assessed as tumor growth inhibition at 3 mg/kg, po qd administered for 2 weeks relative to control; assay type: functional
[30] = Toxicity in nude mouse MMTV-Wnt1 model assessed as body weight loss at 0.3 to 3 mg/kg, po qd administered for 2 weeks measured during compound dosing; assay type: organism-based; settings: in vivo, 336 h
[31] = test system: Cytochrome P450; experiment: Inhibition of CYP450 (unknown origin) up to 10 uM; assay type: ADME, protein assay; settings: human
[32] = Dose normalized Cmax in Balb/c mouse at 5 mg/kg via oral gavage after 24 hrs by LC/MS/MS analysis; assay type: ADME, organism-based; settings: in vivo
[33] = Dose normalized AUC in Balb/c mouse at 5 mg/kg via oral gavage after 24 hrs by LC/MS/MS analysis; assay type: ADME, organism-based; settings: in vivo
[34] = molecular target: T2, Protein-serine O-palmitoleoyltransferase porcupine (Homo sapiens, UniProt Q9H237); experiment: Displacement of [3H]-GNF-1331 from human PORCN after 3 hrs by scintillation counting analysis
T2 sequence (Q9H237 whole entry): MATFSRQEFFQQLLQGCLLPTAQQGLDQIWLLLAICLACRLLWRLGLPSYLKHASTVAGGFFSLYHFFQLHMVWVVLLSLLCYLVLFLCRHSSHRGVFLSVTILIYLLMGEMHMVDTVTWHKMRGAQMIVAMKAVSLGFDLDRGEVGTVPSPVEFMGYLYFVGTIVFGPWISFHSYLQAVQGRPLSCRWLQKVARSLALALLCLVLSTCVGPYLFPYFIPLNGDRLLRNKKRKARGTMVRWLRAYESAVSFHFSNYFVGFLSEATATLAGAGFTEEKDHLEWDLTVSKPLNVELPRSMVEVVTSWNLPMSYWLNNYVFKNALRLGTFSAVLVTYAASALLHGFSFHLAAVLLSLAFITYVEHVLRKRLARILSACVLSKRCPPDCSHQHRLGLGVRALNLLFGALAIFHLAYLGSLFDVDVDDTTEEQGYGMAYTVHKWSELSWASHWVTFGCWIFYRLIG

## Cc1cc(-c2ccc(CC(=O)Nc3ccc(-c4cnccn4)cn3)cn2)ccn1
[1]
  solubility at 24 h: 16 µM (≈ 6.12 µg/mL)

## CC(=O)N1CCN(c2ccc(NC(=O)Cc3cnc(-c4ccnc(C)c4)c(C)c3)nc2)CC1
[2]
  IC50: 0.7 nM
[1]
  solubility at 24 h: > 175 µM

## CC(=O)N1CCN(c2ccc(NC(=O)Cc3cnc(-c4ccnc(F)c4)c(C)c3)nc2)CC1
[2]
  IC50: 0.8 nM
[1]
  solubility at 24 h: 350 µM (≈ 157 µg/mL)
[3]
  clearance: 5.33 mL/min/kg
[4]
  clearance: 5.35 mL/min/kg
[5]
  clearance: 0.67 mL/min/kg
[6]
  Vd: 0.57 L/kg
[7]
  Vd: 0.7 L/kg
[8]
  Vd: 0.25 L/kg
[9]
  half-life: 2.44 h
[10]
  half-life: 2.77 h
[11]
  half-life: 8.86 h
[12]
  bioavailability: 96%
[13]
  bioavailability: 84%
[14]
  bioavailability: 72%
[15]
  IC50: > 10000 nM
[16]
  IC50: > 10000 nM
[17]
  IC50: > 10000 nM
[18]
  fraction unbound: 0.12
[19]
  fraction unbound: 0.169
[20]
  fraction unbound: 0.091
[21]
  fraction unbound: 0.288
[22]
  fraction unbound: 0.05
[23]
  Papp A→B: 7.5 ×10⁻⁶ cm/s
[24]
  efflux ratio: 3.2
[25]
  inhibition in vivo at 3 mg/kg: 90%
[26]
  inhibition: inactive
[27]
  T/C: 15%
[28]
  T/C: -74%
[29]
  T/C: -84%
[30]
  Activity: Non-Toxic

## Cc1cc(-c2ccc(CC(=O)Nc3ccc(-c4ccccn4)cn3)cn2)ccn1
[1]
  solubility at 24 h: 17 µM (≈ 6.48 µg/mL)

## Cc1cc(CC(=O)Nc2ccc(-c3cnccn3)cn2)cnc1-c1ccnc(F)c1
[1]
  solubility at 24 h: 105 µM (≈ 42 µg/mL)

## Cc1cc(-c2ncc(CC(=O)Nc3ccc(-c4ccccn4)cn3)cc2C)ccn1
[2]
  IC50: 0.4 nM
[1]
  solubility at 24 h: 32 µM (≈ 12.7 µg/mL)

## COc1ccc2nc(NC(=O)Cc3ccc(-c4ccnc(C)c4)cc3)sc2c1
[31]
  inhibition (INH): Not Active

## Cc1cc(CC(=O)Nc2ccc(-c3cnccn3)cn2)cnc1-c1ccnc(CO)c1
[2]
  IC50: 26 nM

## COC(=O)N1CCN(c2ccc(NC(=O)Cc3cnc(-c4ccnc(C)c4)c(C)c3)nc2)CC1
[1]
  solubility at 24 h: > 175 µM

## Cc1cc(-c2ccc(CC(=O)Nc3ccc(-c4ccccc4)cn3)cc2)ccn1
[2]
  IC50: 0.7 nM
[1]
  solubility at 24 h: < 2 µM

## Cc1cc(-c2ncc(CC(=O)Nc3ccc(-c4cnccn4)cn3)cc2C)ccn1 [WNT-974]
[2]
  IC50: 0.4 nM
[1]
  solubility at 24 h: 210 µM (≈ 83.3 µg/mL)

## Cc1cc(-c2ccc(CC(=O)Nc3ccc(-c4ccccc4)cn3)cn2)ccn1
[2]
  IC50: 0.2 nM
[1]
  solubility at 24 h: 6 µM (≈ 2.28 µg/mL)

## Cc1cc(CC(=O)Nc2ccc(N3CCNCC3)cn2)cnc1-c1ccnc(F)c1
[2]
  IC50: 24 nM

## Cc1cc(-c2ccc(NC(=O)Nc3ccc(-c4ccccc4)cc3)cc2)ccn1
[2]
  IC50: > 10000 nM

## COc1ccc2nc(C(=O)NCc3ccc(-c4ccncc4)cc3)sc2c1
[2]
  IC50: 380 nM

## COc1ccc2nc(NC(=O)Cc3ccc(-c4ccncc4)cc3)sc2c1
[32]
  Cmax/dose: 4100 nM
[33]
  AUC/dose: 26 µM·h
[3]
  clearance: 2.49 mL/min/kg
[17]
  IC50: 800 nM

## CCCn1c(SCC(=O)Nc2nc3ccc(OC)cc3s2)nnc1-c1ccncc1
[2]
  IC50: 12 nM
[34]
  IC50: 8 nM
[32]
  Cmax/dose: 14 nM
[33]
  AUC/dose: 0.03 µM·h

## Cc1cc(-c2ccc(OC(=O)Nc3ccc(-c4ccccc4)cc3)cc2)ccn1
[2]
  IC50: > 10000 nM

## O=C(Cc1ccc(-c2ccncc2)cc1)Nc1nc(-c2ccccc2)cs1
[2]
  IC50: 5.5 nM
